Source: US6355658B1, “Coumarin derivatives, methods of preparation and application as medicines” (Centre National de la Recherche Scientifique, priority 1997, dated 2002)
Like-named read-outs stand apart in the source and are kept apart here.

Legend:
[1] = biological target: T1, bovine α-chymotrypsin (Bos taurus, UniProt P00766); experiment: Inactivation kinetics of bovine α-chymotrypsin (chromogenic substrate Suc-Ala2-Pro-Phe-pNA); assay type: biochemical; details: 25° C., pH 7.5, N.I. = non-inactivator; for kinact/KI: read-out: Ki/KI or kobs/[I], α-CT
T1 construct: bovine α-chymotrypsin
Procedure: (§1) The inactivating or inhibitory properties of the coumarin derivatives were tested with respect to a certain number of enzymes: human leukocyte elastase, bovine α-chymotrypsin, human thrombin and bovine trypsin. The kinetic measurements were taken at 25° C. in the following buffers: 0.1 M Hepes, 0.5 M NaCl, 0.01% Tween 80, pH 8.0 (human leukocyte elastase); 0.025 M NaH2PO4, 0.05 M KCl, pH 7.5 (α-chymotrypsin); 0.01 M Tris, 0.01 M Hepes, 0.1 M NaCl, 0.1% PEG-6000, pH 7.5 (human thrombin); 0.1 M Tris, 0.01 M CaCl2, pH 7.5 (bovine trypsin). The chromogenic substrates used to determine the activity of the enzymes are: MeOSuc-Ala2-Pro-Val-pNA (human leukocyte elastase); Suc-Ala2-Pro-Phe-pNA (α-chymotrypsin); H-D-Phe-Pip-Arg-pNA (human thrombin); N-benzoyl-Arg-pNA (bovine trypsin) (pNA: para-nitroaniline).
(§2) The interaction of a suicide substrate with a serine protease corresponds to the minimum reaction scheme described in equation 1 in which E represents the enzyme, I represents the inhibitor, E-I represents the acyl-enzyme and E-I′ represents the inactivated enzyme [Silverman R. B., 1988, “Mechanism-based enzyme inactivation: chemistry and enzymology”, volume 1 CRC Press, Boca Raton, Fla.]: [drawing 76]
(§3) When k4 is small compared to k3, equation 1 can be simplified (equation 2, [Daniels et al., 1983, J. Biol. Chem., 258: 15046-15053]): [drawing 77]
(§4) Considering the first instants of the reaction, the system reduces to a simplified equation of the form of equation 2.
(§5) The kinetic constants characterizing the inactivation of the enzymes with the coumarin derivatives were determined using either the conventional sampling method (or batchwise method) or a method placing the inhibitor and the substrate in competition (or continuous method); these methods are described by Pochet et al. [Pochet et al., 1996, J. Med. Chem., 39: 2579-2585].
(§6) The inactivation of serine proteaaes with the coumarin derivatives is thus characterized by the following constants (see Eq. 2):
(§7) KI: apparent dissociation constant of an enzyme-inhibitor complex located upstream of ki
(§8) ki: first-order rate constant for inactivation at infinite inhibitor concentration
(§9) ki/KI: index of the overall inactivating efficacy of the inhibitor.

[2] = biological target: T2, human leukocyte elastase (Homo sapiens, UniProt P08246); experiment: Inactivation kinetics of human leukocyte elastase (chromogenic substrate MeOSuc-Ala2-Pro-Val-pNA); assay type: biochemical; details: 25° C., pH 8.0
T2 sequence (P08246 30-247 limits assumed): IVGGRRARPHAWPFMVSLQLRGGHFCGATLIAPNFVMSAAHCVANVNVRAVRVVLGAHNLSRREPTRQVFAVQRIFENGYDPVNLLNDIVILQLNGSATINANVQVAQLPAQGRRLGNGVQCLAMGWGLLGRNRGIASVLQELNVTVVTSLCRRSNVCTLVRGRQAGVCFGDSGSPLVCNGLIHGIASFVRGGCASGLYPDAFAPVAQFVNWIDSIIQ
Procedure: as §1, §2, §3, §4, §5, §6, §7, §8, §9

[3] = biological target: T3, human thrombin (Homo sapiens, UniProt P00734); experiment: Inactivation kinetics of human thrombin (chromogenic substrate H-D-Phe-Pip-Arg-pNA); assay type: biochemical; details: 25° C., pH 7.5, N.I. = non-inactivator; for kinact/KI: read-out: Ki/KI or kobs/[I], Thrombin
T3 construct: human thrombin
Procedure: as §1, §2, §3, §4, §5, §6, §7, §8, §9

[4] = biological target: T4, bovine trypsin (Bos taurus, UniProt P00760); experiment: Inactivation kinetics of bovine trypsin (chromogenic substrate N-benzoyl-Arg-pNA); assay type: biochemical; details: TABLE 3; 25° C., pH 7.5; N.I. = non-inactivator
T4 sequence (P00760 24-246): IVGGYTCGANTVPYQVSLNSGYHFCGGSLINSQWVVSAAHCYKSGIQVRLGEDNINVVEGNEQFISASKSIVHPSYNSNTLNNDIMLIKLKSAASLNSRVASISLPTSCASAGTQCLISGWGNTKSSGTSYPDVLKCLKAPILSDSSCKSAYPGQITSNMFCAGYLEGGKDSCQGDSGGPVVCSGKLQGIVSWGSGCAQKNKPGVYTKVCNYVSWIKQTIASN
Procedure: as §1, §2, §3, §4, §5, §6, §7, §8, §9

[5] = TABLE 5, phenyl esters, without 6-chloromethyl: inactivation phase of transient inactivation
[6] = TABLE 5, phenyl esters, inactivation phase
[7] = TABLE 5, phenyl esters, inactivation phase, N.I. = non-inactivator, read-out: Ki/KI or kobs/[I], HLE
[8] = TABLE 3, no chloromethyl in position 6
[9] = TABLE 3, no chloromethyl in position 6, inactivation phase of transient inactivation, read-out: Ki/KI or kobs/[I], LHE
[10] = TABLE 1, 2-pyridyl esters, inactivation phase
[11] = TABLE 1, 2-pyridyl esters, inactivation phase of transient inactivation, read-out: Ki/KI or kobs/[I], LHE

SMILES: O=C(Sc1ccccc1)c1cc2cc(CCl)ccc2oc1=O [III1, S-phenyl 6-chloromethyl-2-oxo-2H-1-benzopyran-3-carbothioate]
- kinact/KI [1, 5]: 39000 M⁻¹ s⁻¹
- Ki/KI or kobs/[I], HLE ([2]; TABLE 5, phenyl esters, inactivation phase, N.I. = non-inactivator): N.I.

SMILES: O=C(Sc1cccc(Cl)c1)c1cc2cc(CCl)ccc2oc1=O [III2, S-(3-chlorophenyl) 6-chloromethyl-2-oxo-2H-1-benzopyran-3-carbothioate]
- melting point: 194 to 195 °C
- kinact/KI [1, 5]: 730000 M⁻¹ s⁻¹
- Ki/KI or kobs/[I], Thrombin [3, 6]: — N.I.
- kinact/KI [2, 7]: < 200 M⁻¹ s⁻¹

SMILES: O=C(Oc1cncc(Cl)c1)c1cc2ccccc2oc1=O [Ia3, 5-chloro-3-pyridyl 2-oxo-2H-1-benzopyran-3-carboxylate]
- Ki/KI or kobs/[I], α-CT [1, 8]: N.I.^a N.I. N.I. N.I. N.I. N.I. N.I. N.I.
- Ki/KI or kobs/[I], Thrombin ([3]; TABLE 3): N.I. N.I. N.I. N.I. N.I. N.I. N.I. N.I. —
- Ki/KI or kobs/[I], Trypsin [4]: N.I. N.I. N.I. N.I. N.I. N.I. N.I. — —
- kinact/KI [2, 9]: 32800 M⁻¹ s⁻¹

SMILES: O=C(Oc1cc(Cl)ccc1Cl)c1cc2ccccc2oc1=O [Ia4, 2,5-dichlorophenyl 2-oxo-2H-1-benzopyran-3-carboxylate]
- melting point: 189 to 192 °C
- Ki/KI or kobs/[I], Thrombin [3, 6]: N.I.
- kinact/KI [2, 7]: 5800 M⁻¹ s⁻¹

SMILES: Cc1ccc2oc(=O)c(C(=O)Oc3cccc(Cl)c3)cc2c1 [Ib1, 3-chlorophenyl 6-methyl-2-oxo-2H-1-benzopyran-3-carboxylate]
- melting point: 175 to 176 °C
- kinact/KI [1, 5]: 9400 M⁻¹ s⁻¹
- kinact/KI [2, 7]: 1100 M⁻¹ s⁻¹

SMILES: O=C(Oc1cccc(Cl)n1)c1cc2cc(CCl)ccc2oc1=O [Ic′″12, 6-chloro-2-pyridyl 6-chloromethyl-2-oxo-2H-1-benzopyran-3-carboxylate]
- melting point: 172 to 173 °C
- kinact/KI ([1]; TABLE 1, 2-pyridyl esters): 107000 M⁻¹ s⁻¹
- kinact/KI [3, 10]: 7200 M⁻¹ s⁻¹
- Ki/KI or kobs/[I], Thrombin ([3]; TABLE 1, inactivation phase): 7200 M⁻¹ s⁻¹
- kinact/KI [2, 11]: 26000 M⁻¹ s⁻¹
- Ki/KI or kobs/[I], LHE ([2]; TABLE 1, inactivation phase): 26000 M⁻¹ s⁻¹

SMILES: O=C(Oc1ccc(Cl)cn1)c1cc2cc(CCl)ccc2oc1=O [Ic′″13, 5-chloro-2-pyridyl 6-chloromethyl-2-oxo-2H-1-benzopyran-3-carboxylate]
- melting point: 171 to 172 °C
- kinact/KI ([1]; TABLE 1, 2-pyridyl esters): ~2500 M⁻¹ s⁻¹
- Ki/KI or kobs/[I], Thrombin [3, 10]: N.I.
- Ki/KI or kobs/[I], Thrombin ([3]; TABLE 1, inactivation phase): N.I.
- kinact/KI [2, 11]: 110 M⁻¹ s⁻¹
- Ki/KI or kobs/[I], LHE ([2]; TABLE 1, inactivation phase): 110 M⁻¹ s⁻¹

SMILES: O=C(Oc1ccccc1[N+](=O)[O-])c1cc2cc(CCl)ccc2oc1=O [Ic″1, 2-nitrophenyl 6-chloromethyl-2-oxo-2H-1-benzopyran-3-carboxylate]
- melting point: 163 to 164 °C
- kinact/KI [1, 5]: 9300 M⁻¹ s⁻¹
- kinact/KI [2, 7]: 1250 M⁻¹ s⁻¹

SMILES: O=C(Oc1cccc(C(F)(F)F)c1)c1cc2cc(CCl)ccc2oc1=O [Ic″2, 3-trifluoromethylphenyl 6-chloromethyl-2-oxo-2H-1-benzopyran-3-carboxylate]
- melting point: 162 to 163 °C
- kinact/KI [1, 5]: < 500 M⁻¹ s⁻¹
- kinact/KI [2, 7]: 330 M⁻¹ s⁻¹

SMILES: O=C(Oc1cccc(Cl)c1Cl)c1cc2cc(CCl)ccc2oc1=O [Ic″3, 2,3-dichlorophenyl 6-chloromethyl-2-oxo-2H-1-benzopyran-3-carboxylate]
- kinact/KI [1, 5]: 1200 M⁻¹ s⁻¹
- Ki/KI or kobs/[I], Thrombin [3, 6]: — — — — N.I. N.I.
- kinact/KI [2, 7]: < 200 M⁻¹ s⁻¹

SMILES: O=C(Oc1c(Cl)cccc1Cl)c1cc2cc(CCl)ccc2oc1=O [Ic″5, 2,6-dichlorophenyl 6-chloromethyl-2-oxo-2H-1-benzopyran-3-carboxylate]
- Ki/KI or kobs/[I], α-CT [1, 5]: N.I.
- Ki/KI or kobs/[I], Thrombin [3, 6]: — — — — N.I. N.I.
- kinact/KI [2, 7]: < 200 M⁻¹ s⁻¹

SMILES: O=C(Oc1cc(Cl)cc(Cl)c1)c1cc2cc(CCl)ccc2oc1=O [Ic″6, 3,5-dichlorophenyl 6-chloromethyl-2-oxo-2H-1-benzopyran-3-carboxylate]
- kinact/KI [1, 5]: 110000 M⁻¹ s⁻¹
- Ki/KI or kobs/[I], Thrombin [3, 6]: N.I.
- kinact/KI [2, 7]: 4000 M⁻¹ s⁻¹

SMILES: COc1cc(Cl)cc(OC(=O)c2cc3cc(CCl)ccc3oc2=O)c1 [Ic″7, 3-chloro-5-methoxyphenyl 6-chloromethyl-2-oxo-2H-1-benzopyran-3-carboxylate]
- kinact/KI [1, 5]: 1200 M⁻¹ s⁻¹
- kinact/KI [2, 7]: 350 M⁻¹ s⁻¹

SMILES: CC(=O)OCc1ccc2oc(=O)c(C(=O)Oc3cccc(Cl)c3)cc2c1 [Id2, 3-chlorophenyl 6-acetoxymethyl-2-oxo-2H-1-benzopyran-3-carboxylate]
- kinact/KI [1, 5]: 20000 M⁻¹ s⁻¹
- kinact/KI [3, 6]: 580 M⁻¹ s⁻¹
- kinact/KI [2, 7]: 1440 M⁻¹ s⁻¹

SMILES: CC(=O)OCc1ccc2oc(=O)c(C(=O)Oc3cc(Cl)ccc3Cl)cc2c1 [Id11, 2,5-dichlorophenyl 6-acetoxymethyl-2-oxo-2H-1-benzopyran-3-carboxylate]
- melting point: 168 to 171 °C
- kinact/KI [3, 6]: 500 M⁻¹ s⁻¹

SMILES: CC(=O)OCc1ccc2oc(=O)c(C(=O)Oc3cc(F)ccc3F)cc2c1 [Id12, 2,5-difluorophenyl 6-acetoxymethyl-2-oxo-2H-1-benzopyran-3-carboxylate]
- melting point: 137 to 139 °C
- kinact/KI [3, 6]: 150 M⁻¹ s⁻¹

SMILES: Cl.NCc1ccc2oc(=O)c(C(=O)Oc3cncc(Cl)c3)cc2c1 [If3, 5-chloro-3-pyridyl 6-aminomethyl-2-oxo-2H-1-benzopyran-3-carboxylate hydrochloride]
- melting point: 230 °C (dec.)
- Ki/KI or kobs/[I], α-CT [1, 8]: N.I.^a N.I. N.I. N.I. N.I. N.I. N.I. N.I.
- Ki/KI or kobs/[I], α-CT ([1]; second table headed TABLE 3): N.I.^a N.I. N.I. N.I. N.I. N.I. N.I. N.I.
- Ki/KI or kobs/[I], Thrombin ([3]; TABLE 3): N.I. N.I. N.I. N.I. N.I. N.I. N.I. N.I. —
- Ki/KI or kobs/[I], Thrombin ([3]; second table headed TABLE 3): N.I. N.I. N.I. N.I. N.I. N.I. N.I. N.I. —
- kinact/KI [2, 9]: 9100 M⁻¹ s⁻¹
- Ki/KI or kobs/[I], LHE ([2]; TABLE 3, inactivation phase): 9100 M⁻¹ s⁻¹

SMILES: O=C(Oc1cncc(Cl)c1)c1cc2cc(Br)ccc2oc1=O [Ig1, 5-chloro-3-pyridyl 6-bromo-2-oxo-2H-1-benzopyran-3-carboxylate]
- Ki/KI or kobs/[I], α-CT [1, 8]: # N.I.
- kinact/KI [2, 9]: 58000 M⁻¹ s⁻¹
